Data published in PMC9091336, “Functional Characterization of Odorant Binding Protein PyasOBP2 From the Jujube Bud Weevil, Pachyrhinus yasumatsui (Coleoptera: Curculionidae)” (Frontiers in Physiology, 2022).

Experiments:
PyasOBP2 [1] = assay: Fluorescence competitive binding assay with 1-NPN as probe; parameters: species or system Pachyrhinus yasumatsui; conditions: for IC50 / Ki: PyasOBP2 2 μM, 1-NPN 2 μM; for IC50: ligand 0 to 20 μM, three replicates; for Ki: dissociation constant calculated from IC50 by Ki=IC50/(1+[1-NPN]/K1-NPN); for binding to PyasOBP2 (in words): fluorescence competitive binding, ligand up to 20 μM
Procedure: (§1) Fluorescence competitive binding assays were carried out on an F-2700 fluorescence spectrophotometer (Hitachi, Tokyo, Japan) to determine the binding affinity of PyasOBP2. 1-N-phenyl-naphthylamine (1-NPN) was used as a fluorescent probe ([Pelosi et al., 2006]) with excitation at 337 nm, and the emission spectra were measured from 370 to 550 nm. Based on gas chromatography-mass spectrometry (GC-MS) and previous studies ([Yan et al., 2017]; [Yan et al., 2020]), 38 volatiles derived from Z. jujuba were selected as putative ligands for fluorescence competitive binding assays (Table 2). 1-NPN and all ligands used in binding assays were diluted in methanol to 1 mM stock solutions. To measure the binding affinity of PyasOBP2 with 1-NPN, PyasOBP2 solution (with a final concentration of 2 μM) was titrated with 1-NPN to final concentrations ranging from 2 to 20 μM. In ligand-binding assays, each ligand with a concentration ranging from 0 to 20 μM was added into a mixture of PyasOBP2 (2 μM) and 1-NPN (2 μM), and maximal fluorescence intensities were plotted against ligand concentrations based on three replicates.
The dissociation constant K1-NPN (for PyasOBP2 binding with 1-NPN) was calculated with Scatchard plotting of binding data in the GraphPad Prism 8.0 Software ([Sideris et al., 1992]). The dissociation constant (Ki) of each ligand was calculated with Eq. 3, as described by [Cui et al. (2018)]. The ligand binding affinity to PyasOBP2 was considered as very strong (Ki≤5 μM), strong (5 μM<Ki≤10 μM), moderate (10 μM<Ki≤20 μM) and weak (Ki>20 μM) in this study. Ki=IC50/(1+[1−NPN]/K1−NPN) (3)

PyasOBP2 [2] = assay: Binding of fluorescent probe 1-NPN to PyasOBP2 (titration, Scatchard plot); parameters: species or system Pachyrhinus yasumatsui; conditions: PyasOBP2 2 μM titrated with 1-NPN 2 to 20 μM, read-out: dissociation constant of PyasOBP2 with 1-NPN
Procedure: as §1, with “To measure the binding affinity of PyasOBP2 with 1-NPN, PyasOBP2 solution (with a final concentration of 2 μM) was titrated with 1-NPN to final concentrations ranging from 2 to 20 μM.” left out
The dissociation constant K1-NPN (for PyasOBP2 binding with 1-NPN) was calculated with Scatchard plotting of binding data in the GraphPad Prism 8.0 Software ([Sideris et al., 1992]). The dissociation constant (Ki) of each ligand was calculated with Eq. 3, as described by [Cui et al. (2018)]. […]

[3] = system: adult P. yasumatsui antennae; parameters: method as in Yan et al., 2017; Yan et al., 2020; conditions: ref Yan et al., 2017, 2020; cited from earlier work
P. yasumatsui adults = system: P. yasumatsui adults; parameters: method as in Yan et al., 2017; Yan et al., 2020; conditions: volatiles emitted from jujube shoots, ref Yan et al., 2017, 2020; cited from earlier work

Compound | IC50 (PyasOBP2 [1]) | Ki (PyasOBP2 [1]) | further results
C=CC(C)(O)CCC=C(C)CCC=C(C)C (mixture of isomers) [Nerolidol] | 7.54 µM | 6.41 µM | Ki (PyasOBP2 [1]; listed as nerolidol): < 10 µM
c1ccc(Nc2cccc3ccccc23)cc1 [1-NPN, 1-N-phenyl-naphthylamine] |  |  | Kd (PyasOBP2 [2]): 5.66 µM
C=CC(O)CC (centres unmarked) [1-Penten-3-ol] | > 20 µM |  | 
CC(C)=Cc1ccccc1 [2-Methyl-1-phenylpropene] | 5.42 µM | 4.61 µM | 
CC/C=C\CCOC(=O)C(C)CC (stereo not drawn) [2-Methylbutyric Acid cis-3-Hexen-1-yl Ester] | 11.9 µM | 10.1 µM | 
CC1=CCC2C(C1)C2(C)C (centres unmarked) [3-Carene] | > 20 µM | > 20 µM | 
N#Cc1ccccc1 [Benzonitrile] | > 20 µM |  | binding to PyasOBP2 (in words) (PyasOBP2 [1]): could not bind to PyasOBP2
OCc1ccccc1 [Benzyl alcohol] | 16.2 µM | 12 µM | 
CCCCOC(C)=O [Butyl acetate] | > 20 µM | > 20 µM | 
C=C1C2CCC(C2)C1(C)C (centres unmarked) [Camphene] | 8.33 µM | 7.08 µM | 
CCCCCC=O [Caproaldehyde] | 10.9 µM | 8.03 µM | 
CCCCOC(=O)c1ccccc1C(=O)OCCCC [Dibutyl phthalate] | 10.5 µM | 7.73 µM | 
C=C(C)[C@H]1CC=C(C)CC1 [Dipentene] | 7.05 µM | 5.99 µM | Ki (PyasOBP2 [1]; listed as dipentene): < 5 µM
CCCCCCCCCCCC [Dodecane] | > 20 µM |  | binding to PyasOBP2 (in words) (PyasOBP2 [1]): could not bind to PyasOBP2
CCOC(=O)C(C)CC (centres unmarked) [Ethyl 2-methylbutyrate] | > 20 µM |  | 
CCCC(=O)OCC [Ethyl butyrate] | 3.55 µM | 3.02 µM | Ki (PyasOBP2 [1]; listed as ethyl butyrate): < 5 µM
CCOC(=O)CC(C)C [Ethyl isovalerate] | > 20 µM |  | 
CCCCC(=O)OCC [Ethyl valerate] | > 20 µM |  | 
CC12CCC(CC1)C(C)(C)O2 [Eucalyptol] | 15.1 µM | 12.8 µM | 
C=CCc1ccc(O)c(OC)c1 [Eugenol] | > 20 µM |  | binding to PyasOBP2 (in words) (PyasOBP2 [1]): could not bind to PyasOBP2

Compound | IC50 (PyasOBP2 [1]) | Ki (PyasOBP2 [1]) | further results
CC(C)=CCCC(C)=CC#N [Geranyl nitrile] | > 20 µM |  | binding to PyasOBP2 (in words) (PyasOBP2 [1]): could not bind to PyasOBP2
CCCCCCC=O [Heptaldehyde] | 15.4 µM | 11.4 µM | 
CC(C)C=O [Isobutyraldehyde] | 13 µM | 11 µM | 
C=CC(C)(O)CCC=C(C)C (centres unmarked) [Linalool] | 11.6 µM | 9.88 µM | Ki (PyasOBP2 [1]; listed as linalool): < 10 µM
CCCCCCCC/C=C\CCCCCCCC(=O)OC [Methyl oleate] | > 20 µM |  | binding to PyasOBP2 (in words) (PyasOBP2 [1]): could not bind
CCCCCCCCCCCCCCCC(=O)OC [Methyl palmitate] | > 20 µM | > 20 µM | EAG response [3]: strong EAG responses; attraction of adults (P. yasumatsui adults): significantly attracted; binding to PyasOBP2 (in words) (PyasOBP2 [1]): could not bind
C=CC(=C)CCC=C(C)C [Myrcene] | 11.8 µM | 8.92 µM | 
CCCCCCCCC=O [Nonanal] | 15.6 µM | 13.2 µM | EAG response [3]: strong EAG responses; attraction of adults (P. yasumatsui adults): significantly attracted; Ki (PyasOBP2 [1]; listed as nonanal): < 20 µM
C=CC(C)=CCC=C(C)C [Ocimene] | 10.5 µM | 8.92 µM | EAG response [3]: strong EAG responses; attraction of adults (P. yasumatsui adults): significantly attracted; Ki (PyasOBP2 [1]; listed as ocimene): < 10 µM
CCCCCCCC=O [Octanal] | 7.81 µM | 6.64 µM | 
CC(C)=CCC/C(C)=C/CC/C(C)=C/CC/C=C(\C)CC/C=C(\C)CCC=C(C)C [Squalene] | > 20 µM |  | binding to PyasOBP2 (in words) (PyasOBP2 [1]): could not bind
CC/C=C\CCO [cis-3-Hexen-1-ol] | 8.06 µM | 6.85 µM | Ki (PyasOBP2 [1]; listed as cis-3-hexen-1-ol): < 10 µM
CC/C=C\CCOC(=O)CC(C)C [cis-3-Hexenyl 3-methylbutanoate] | > 20 µM |  | 
CC/C=C\CCOC(C)=O [cis-3-Hexenyl acetate] | > 20 µM |  | 
CCC/C=C/C=O [trans-2-Hexen-1-al] | 15.8 µM | 13.4 µM | 
CCC/C=C/CO [trans-2-Hexen-1-ol] | 8.93 µM | 6.6 µM | Ki (PyasOBP2 [1]; listed as trans-2-hexen-1-ol): < 10 µM
CC1=CC[C@H](C(C)C)C=C1 [α-Phellandrene] | 10.7 µM | 9.12 µM | 
CC1=CCC2CC1C2(C)C (stereo not drawn) [α-Pinene] | 10.8 µM | 9.18 µM | 
C=C/C(C)=C/C/C=C(\C)CCC=C(C)C [α-farnesene] |  |  | attraction of adults (P. yasumatsui adults): significantly attracted
C=C1CC/C=C(\C)CC[C@@H]2[C@@H]1CC2(C)C [β-Caryophyllene] | > 20 µM |  | 
